Consider one substance from patent US6602296B1, “Chemical supplementation of bone” (The University of Western Australia, priority 1997, dated 2003).

A short description of data set [1]: Antibiotic iontophoresis in sheep tibia, antibiotic concentration in bone samples. The note with it: 1% solution, 100 volts. The protocol: Quantitative analysis was then carried out to test iontophoresis as a means of antibiotic delivery in allograft bone. Specimens of sheep tibia were prepared as described above. […] A potential difference of 100 volts was applied for 1 minute, 5 minutes or 10 minutes with controls being set up the same way for 10 minutes except no potential difference was applied. A recording of current passed for each specimen was made.
Each sample was then washed in water and dried. Samples from 10 the endosteal and periosteal surfaces were then taken by drilling the bone using a 3 mm low speed drill, in 10 positions on each surface, and crushed to a fine powder. To a known mass of each sample was added distilled water (2 ml) and the sample agitated using ultrasound. The sample was then centrifuged and the supernatant removed and the process repeated a further 2 times. The last wash was left to soak for 12 hours before centrifuging. […] The supernatant solutions were then analysed for antibiotic content; for gentamicin using Fluorescence Polarisation Immuno Assay (Abbot Axsym Analyser); and for flucloxacillin the assays were performed using High Performance Liquid Chromatography (HPLC) technique. From the levels in the supernatant solutions, the antibiotic concentrations in the bone samples were calculated. […]

In data set [2] the test system is Staphylococcus aureus. As to conditions: varies with different phage types; cited from earlier work.

gentamicin Sulphate: the “plateau level in endosteal and periosteal specimens” value in data set [1] was “about 150 mg/Kg”. The minimum inhibitory concentration entry in data set [2] is “approximately 0.25 mg/L”.
